One test addresses T1, IRAK1 (Homo sapiens, UniProt P51617).
T1 construct: purchased Reaction Biology (RBC HotSpot Kinase Assay)
Put plainly: RBC HotSpot Kinase Assay, IRAK1. The format is biochemical. The method, boiled down: (§1)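 Radiometric filter-binding (HotSpot) activity assay on isolated recombinant kinase, possibly truncated or catalytic domain only, in 20 mM Hepes pH 7.5, 10 mM MgCl2, 1 mM EGTA, 2 mM DTT, 1% DMSO. Compound preincubated 20 min with kinase and substrate, then ^33P-ATP added. Reaction 2 h at room temperature, read by P81 filter binding.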

In a further test the target is T2, FLT3 (Homo sapiens, UniProt P36888).
T2 construct: purchased Reaction Biology (RBC HotSpot Kinase Assay)
T2 sequence (P36888 564-958 limits assumed): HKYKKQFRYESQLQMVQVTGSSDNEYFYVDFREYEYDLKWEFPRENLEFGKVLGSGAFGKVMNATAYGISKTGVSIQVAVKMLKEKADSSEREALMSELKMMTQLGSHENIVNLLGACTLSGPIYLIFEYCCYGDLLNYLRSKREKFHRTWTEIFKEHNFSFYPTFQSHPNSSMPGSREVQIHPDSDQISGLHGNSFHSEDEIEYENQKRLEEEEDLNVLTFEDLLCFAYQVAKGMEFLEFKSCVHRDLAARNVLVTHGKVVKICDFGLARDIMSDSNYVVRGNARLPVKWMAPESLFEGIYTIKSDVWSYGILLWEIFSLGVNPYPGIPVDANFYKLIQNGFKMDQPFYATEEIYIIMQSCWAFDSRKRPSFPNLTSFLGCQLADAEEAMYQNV
In words: RBC HotSpot Kinase Assay, FLT3. The format is biochemical. The method, boiled down:
as §1

In another test the target is T3, IRAK4 (Homo sapiens, UniProt Q9NWZ3).
T3 sequence (Q9NWZ3 1-460): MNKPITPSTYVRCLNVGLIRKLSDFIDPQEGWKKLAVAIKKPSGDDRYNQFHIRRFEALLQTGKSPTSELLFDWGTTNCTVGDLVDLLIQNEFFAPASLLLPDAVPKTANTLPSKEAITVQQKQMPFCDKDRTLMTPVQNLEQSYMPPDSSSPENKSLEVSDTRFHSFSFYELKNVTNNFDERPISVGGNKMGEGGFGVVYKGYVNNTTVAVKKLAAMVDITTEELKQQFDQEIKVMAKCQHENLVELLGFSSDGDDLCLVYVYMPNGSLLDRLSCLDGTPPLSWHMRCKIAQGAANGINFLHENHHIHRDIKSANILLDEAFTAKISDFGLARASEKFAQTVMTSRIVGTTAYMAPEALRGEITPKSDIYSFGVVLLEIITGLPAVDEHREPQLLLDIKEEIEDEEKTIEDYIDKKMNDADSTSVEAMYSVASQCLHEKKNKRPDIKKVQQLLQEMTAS
In words: RBC HotSpot Kinase Assay, IRAK4. Further details: purchased Reaction Biology (RBC HotSpot Kinase Assay). The format is biochemical. In outline:
as §1

Another test concerns MOLM14 D835Y cells. In words: MOLM14 D835Y cell viability assay (Cell Titer Glo). The format is cell-based. The following applies: Homo sapiens, MOLM-14, 48 h. The protocol:
Both cell lines have activated FLT3 receptors, each of which carry additional resistance mutations in the kinase domain (D835Y and F691L, respectively).
MOLM14 D835Y and MOLM14 F691L cells were grown in RPMI-1640 media supplemented with 20% fetal bovine serum (FBS). For viability/cytotoxicity assessments, cells were seeded into 1536-well white polystyrene tissue culture-treated Greiner plates using a Multidrop Combi dispenser (ThermoFisher), in final volume 5 μL of growth media per well, at a density of 1000 cells per well. After cell addition, 23 nL of test compound were transferred into individual wells (22 doses tested for each test compound, with a 1:2 dilution series starting at 10 μM) via a 1536 pin-tool. Bortezomib (final concentration 2.3 μM) was used as a positive control for cell cytotoxicity. Plates were incubated for 48 hours at standard incubator conditions covered by a stainless steel gasketed lid to prevent evaporation. 48 hours post compound addition, 3 μL of Cell Titer Glo (Promega) were added to each well and plates were incubated at room temperature for 15 minutes with the stainless-steel lid in place. Luminescence readings were taken using a Viewlux imager (PerkinElmer) with a 2 second exposure time per plate.
A general note: In ATP-based viability assays light output follows the ATP content of the culture.

In another test the test system is MOLM14 (D835Y) cells. In words: Combination drug screening, 10 x 10 matrix, cell viability (Cell Titer Glo). The format is cell-based. The following applies: for Sum Excess HSA / Interaction with Compound 96: combination with Compound 96, 10 x 10 dataset; for Sum Excess HSA: 48 hours; for concentration required to reach a similar level of potentiation as Compound 106: 7.8 nM Venetoclax, 10×10 combination, compared with Compound 106; for Interaction with Venetoclax: combination with Venetoclax, 10 x 10 dataset. The protocol: Briefly, 10 nL of compounds were acoustically dispensed into 1536-well white polystyrene tissue culture-treated plates with an Echo 550 acoustic liquid handler (Labcyte). MOLM14 (D835Y) cells were then added to compound-containing plates at a density of 500-cells/well in 5 μL of medium. A 10-point custom concentration range was used for all listed drugs. Plates were incubated for 48 hours at standard incubator conditions covered by a stainless steel gasketed lid to prevent evaporation. 48 h post compound addition, 3 μL of Cell Titer Glo (Promega) were added to each well and plates were incubated at room temperature for 15 minutes with the stainless-steel lid in place. Luminescence readings were taken using a Viewlux imager (PerkinElmer) with a 2 second exposure time per plate.
However, different methodologies may yield different numerical scores, and different definitions of what constitutes a deviation from mere additivity vs true drug synergy.
However, the utility in certain drug combinations vs others should not be distinguished based on cutoffs between HSA scores, because the score itself is only a relative indicator that is completely dependent on experimental design and is not an absolute number. Furthermore, the concept of what constitutes clinically meaningful drug synergy is something that is still being debated, not only between pharmacologists and physicians, but amongst pharmacologists themselves.

T1 sequence (P51617 whole entry): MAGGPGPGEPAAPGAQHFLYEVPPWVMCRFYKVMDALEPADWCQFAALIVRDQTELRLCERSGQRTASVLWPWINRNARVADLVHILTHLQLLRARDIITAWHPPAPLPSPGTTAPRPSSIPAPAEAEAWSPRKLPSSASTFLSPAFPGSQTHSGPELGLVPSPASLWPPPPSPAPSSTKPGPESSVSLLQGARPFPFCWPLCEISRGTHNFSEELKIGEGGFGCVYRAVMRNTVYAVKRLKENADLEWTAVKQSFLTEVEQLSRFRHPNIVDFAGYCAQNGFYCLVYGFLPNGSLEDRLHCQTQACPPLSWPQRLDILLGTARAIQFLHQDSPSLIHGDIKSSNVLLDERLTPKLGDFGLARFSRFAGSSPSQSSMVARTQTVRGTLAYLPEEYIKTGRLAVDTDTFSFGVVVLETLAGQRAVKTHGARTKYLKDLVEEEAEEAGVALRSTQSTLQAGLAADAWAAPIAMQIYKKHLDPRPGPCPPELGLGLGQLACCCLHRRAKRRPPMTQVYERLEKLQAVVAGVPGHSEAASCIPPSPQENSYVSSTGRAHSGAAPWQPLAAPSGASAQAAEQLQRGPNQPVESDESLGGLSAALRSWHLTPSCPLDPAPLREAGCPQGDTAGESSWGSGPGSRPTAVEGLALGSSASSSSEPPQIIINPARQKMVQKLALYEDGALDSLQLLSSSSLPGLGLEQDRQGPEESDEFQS

For orientation: IC50 means the point on the concentration scale where inhibition reaches its midpoint. Low values mean greater potency, high ones weaker potency. Turning to `F[C@H]1CNCC[C@@H]1Nc1cccc(-c2cnc3ccc(-c4cnn5ccccc45)nn23)n1` [Compound 20, N-((3S,4S)-3-fluoropiperidin-4-yl)-6-(6-(pyrazolo[1,5-a]pyridin-3-yl)imidazo[1,2-b]pyridazin-3-yl)pyridin-2-amine], the half-maximal inhibitory concentration (IC50) on IRAK1 is 3 nM; against FLT3, below 0.5 nM; at IRAK4 it was below 0.5 nM; in the test with MOLM14 D835Y cells, 333 nM.
As to `COc1cc2ncc(-c3cccc(N[C@@H]4CCNC4)n3)n2nc1C1(C(F)(F)F)CC1` [Compound 81, (R)-6-(7-methoxy-6-(1-(trifluoromethyl)cyclopropyl)imidazo[1,2-b]pyridazin-3-yl)-N-(pyrrolidin-3-yl)pyridin-2-amine], the IC50 stood at 954 nM on IRAK1, 2 nM against FLT3, 25 nM at IRAK4 and 591 nM in the test on MOLM14 D835Y cells.
On the same counts, the results for `COc1cc2ncc(-c3cccc(N[C@H]4CNC[C@@H]4F)n3)n2nc1C1(C(F)(F)F)CC1` [Compound 82, N-((3S,4S)-4-fluoropyrrolidin-3-yl)-6-(7-methoxy-6-(1-(trifluoromethyl)cyclopropyl)imidazo[1,2-b]pyridazin-3-yl)pyridin-2-amine] are 595 nM, 1 nM, 18 nM and 357 nM.
On the same counts, the results for `COc1cc2ncc(-c3cccc(N[C@H]4CNC[C@@H]4C)n3)n2nc1C1(C(F)(F)F)CC1` [Compound 83, 6-(7-methoxy-6-(1-(trifluoromethyl)cyclopropyl)imidazo[1,2-b]pyridazin-3-yl)-N-((3R,4S)-4-methylpyrrolidin-3-yl)pyridin-2-amine] are 3670 nM, 0.8 nM, 25 nM and 259 nM.
Taken in the same sequence, the figures for `COc1cc2ncc(-c3cccc(N[C@@H]4CCCNC4)n3)n2nc1C1(C(F)(F)F)CC1` [Compound 84, (R)-6-(7-methoxy-6-(1-(trifluoromethyl)cyclopropyl)imidazo[1,2-b]pyridazin-3-yl)-N-(piperidin-3-yl)pyridin-2-amine] were 536 nM, 1 nM, 83 nM and 179 nM.
On to `COc1cc2ncc(-c3cccc(N[C@H]4CNCC45CC5)n3)n2nc1C1CC1` [Compound 100, (R)-N-(6-(6-cyclopropyl-7-methoxyimidazo[1,2-b]pyridazin-3-yl)pyridin-2-yl)-5-azaspiro[2.4]heptan-7-amine], for which the IC50 on IRAK1 is 1380 nM; on FLT3, below 0.5 nM; against IRAK4, below 0.5 nM; in the test with MOLM14 D835Y cells, 20 nM.
Consider `C[C@@H]1C[C@H]2[C@@H]3CCC4=CC(=O)C=C[C@]4(C)[C@@]3(F)[C@@H](O)C[C@]2(C)[C@@]1(O)C(=O)CO` [Dexamethasone, dexamethasone, reference compound], for which, in the test on MOLM14 (D835Y) cells, the “Sum Excess HSA” value is listed as −69.67.
As for `CN1C(=O)[C@@H](NC(=O)c2n[nH]c(Cc3ccccc3)n2)COc2ccccc21` [GSK-2982772], in the test with MOLM14 (D835Y) cells, the “Interaction with Compound 96” value was “Synergestic” and the “Sum Excess HSA” value is recorded as −577.
In the case of `Nc1ccn([C@@H]2O[C@H](CO)[C@@H](O)C2(F)F)c(=O)n1` [Gemcitabine, reference compound], in the test on MOLM14 (D835Y) cells, the “Sum Excess HSA” value is recorded as 30.69.
For the compound `O=C1CC[C@H](N2Cc3c(OCc4ccc(CN5CCOCC5)cc4)cccc3C2=O)C(=O)N1` [Iberdomide], the “Interaction with Compound 96” value with MOLM14 (D835Y) cells is recorded as “Antagonistic”.
On to `COc1cc(C(=O)O)ccc1NC(=O)[C@@H]1N[C@@H](CC(C)(C)C)[C@](C#N)(c2ccc(Cl)cc2F)[C@H]1c1cccc(Cl)c1F` [Idasanutlin], for which, in the test on MOLM14 (D835Y) cells, the “Sum Excess HSA” value is 192.3.
As to `C[C@H]1C[C@@H]2[C@H]([C@@H](O)C[C@@]3(C)[C@H]2CC[C@]3(O)C(=O)CO)[C@@]2(C)C=CC(=O)C=C12` [Methylprednisolone, methylprednisolone, reference compound], the “Sum Excess HSA” value in the test with MOLM14 (D835Y) cells was found to be 891.
Still for that read-out and setting: the same measure for `CC1(C)CCC(c2ccc(Cl)cc2)=C(CN2CCN(c3ccc(C(=O)NS(=O)(=O)c4ccc(N[C@H](CCN5CCOCC5)CSc5ccccc5)c(S(=O)(=O)C(F)(F)F)c4)cc3)CC2)C1` [Navitoclax (ABT-263), Navitoclax, reference compound]: −227.3; for `CN1C(=O)N[C@H](Cc2c[nH]c3c(Cl)cccc23)C1=O` [Necrostatin 2]: 288.7; for `CC1(C)CC[C@]2(NC(=O)C(C)(F)F)CC[C@]3(C)[C@H](C(=O)C=C4[C@@]5(C)C=C(C#N)C(=O)C(C)(C)[C@@H]5CC[C@]43C)[C@@H]2C1` [Omaveloxolone]: 196.
With `CC(=O)c1c(C)c2cnc(Nc3ccc(N4CCNCC4)cn3)nc2n(C2CCCC2)c1=O` [Palbociclib, reference compound], in the test on MOLM14 (D835Y) cells, the “Sum Excess HSA” value is 999.2.
The same measure, in the same setting: the same measure for `C[C@]12C=CC(=O)C=C1CC[C@@H]1[C@@H]2[C@@H](O)C[C@@]2(C)[C@H]1CC[C@]2(O)C(=O)CO` [Prednisolone, prednisolone, reference compound]: −46.1.
Regarding `CC(C)(C)c1cc(NC(=O)Nc2ccc(-c3cn4c(n3)sc3cc(OCCN5CCOCC5)ccc34)cc2)no1` [Quizartinib, reference compound], in the test with MOLM14 (D835Y) cells, the “concentration required to reach a similar level of potentiation as Compound 106” value is recorded as “substantially higher concentrations” and the “Interaction with Venetoclax” value is “synergize”.
In the case of `COc1cccc2nc(-c3cccs3)nc(NN3C(=O)C=C(C)C3=O)c12` [SPC-839], the “Sum Excess HSA” value with MOLM14 (D835Y) cells was −326.8.
On to `CC1(C)CCC(C)(C)c2cc(NC(=O)c3ccc(C(=O)O)cc3)ccc21` [Tamibarotene], for which the “Sum Excess HSA” value in the test on MOLM14 (D835Y) cells is reported as 850.4.
Still for that read-out and setting: the same measure for `CCOC(=O)c1ccc(C#Cc2ccc3c(c2)C(C)(C)CCS3)nc1` [Tazarotene]: −189; for `CCN(c1cc(-c2ccc(CN3CCOCC3)cc2)cc(C(=O)NCc2c(C)cc(C)[nH]c2=O)c1C)C1CCOCC1` [Tazemetostat, tazemetostat, reference compound]: 74.36.
In the case of `CC1(C)CCC(CN2CCN(c3ccc(C(=O)NS(=O)(=O)c4ccc(NCC5CCOCC5)c([N+](=O)[O-])c4)c(Oc4cnc5[nH]ccc5c4)c3)CC2)=C(c2ccc(Cl)cc2)C1` [Venetoclax (ABT-199), venetoclax, reference compound], in the test on MOLM14 (D835Y) cells, the “Sum Excess HSA” value is −549.6211.
Turning to “Gilteritinib hemifumarate [reference compound]”, in the test with MOLM14 (D835Y) cells, the “concentration required to reach a similar level of potentiation as Compound 106” value is “substantially higher concentrations”.
As for “Gilteritinib hemifumerate [reference compound]”, in the test on MOLM14 (D835Y) cells, the “Interaction with Venetoclax” value is “synergize”.

These data come from patent US12534469B2 (CHILDREN'S HOSPITAL MEDICAL CENTER, priority 2020, dated 2026).
